# Data from patent US11958812B2, “3, 5-disubstituted pyridine and 3, 5-disubstituted pyridazine derivatives and pharmaceutical use of same” (MITSUBISHI TANABE PHARMA CORPORATION, priority 2018, dated 2024).
# Experiments:
# human recombinant ATX = human recombinant ATX (Homo sapiens, UniProt Q13822); test: Enzyme inhibition test (choline release from LPC, Amplex UltraRed fluorescence); format: biochemical; conditions: 200 μM LPC substrate, 1 hr at room temperature, read-out: Experimental Example 1 human ATX IC50
# Description: [Enzyme Inhibition Test Method]
# A mixture (10 μL) of substrate and a set of choline quantification reagents (200 μM LPC (1-Oleoyl-sn-glycero-3-phosphocholine Sigma #L1881), 25 μM Amplex UltraRed reagent (Invitrogen), 0.1 U/mL Peroxidase (TOYOBO), 1 U/mL Choline oxidase (TOYOBO)), prepared with assay buffer (50 mM Tris (pH 8.0), 140 mM NaCl, 5 mM KCl, 1 mM CaCl2, 1 mM MgCl2, 0.1% BSA (Albumin from bovine serum, SIGMA), 0.0025% Triton X-100), enzyme (0.4 ng/μL human recombinant ATX) (10 μL), compound-containing solution (100 nL) were dispensed to a 384-well plate, incubated at room temperature for 1 hr and the fluorescence (Ex. 525 nm/Em. 598 nm) was measured. As the standard, choline chloride was used. With a blank free of enzyme was taken as inhibitory rate 100%, and a control free of inhibitor as inhibitory rate 0%, the inhibitory rate was calculated, and IC50 value was calculated from the inhibitory activity percentage at each concentration.
# ATX activity in plasma = target: T1, ATX activity in plasma (Rattus norvegicus, UniProt Q64610); test: Measurement of ATX activity in plasma (ex vivo), rat single administration test; parameters: species or system male Wistar rat
# T1 construct: from tissue; host or cells: plasma of male Wistar rats after oral dosing
# Description: [Measurement of ATX Activity in Plasma (Ex Vivo)]
# A compound administration solution prepared by wet pulverization in a mixer mill (type: MM400) for 10 min and adjusting to a given concentration with 0.5% aqueous carboxymethylcellulose solution was orally administered to male Wistar rat (5-week-old when used) at 5 mL/kg. Blood samples were collected from the cervical vein over time at 8 to 24 hr after administration. The blood was heparin-treated using a micro blood collection tube Capiject (CJ-AL, TERUMO CORPORATION), and the plasma was separated by centrifugation (4° C., 12,000 rpm, for 2 min), and preserved at −80° C. The rats after blood sampling were euthanized by exsanguination from the caudal vena cava under isoflurane inhalation anesthesia. The measurement of ATX activity in plasma was evaluated using the concentration of choline in the plasma, which was liberated from lysophosphatidylcholine (substrate of ATX) by the lysophospholipase D activity of ATX, as an index. An equal amount of 2× assay buffer (200 mM Tris-HCl pH9.0, 10 mM MgCl2, 1 M NaCl, 0.1% Triton X-100) is added to plasma (12 μL) and reacted at 37° C. for 6 hr. The reaction mixture (10 μL) after reaction for 6 hr and 45 μL of reagent R^1 solution (100 mM Tris-HCl pH 8.0, 0.5 mM TOOS, 10 U/mL peroxidase, 0.01% Triton X-100) were added and blended and absorbance at 550-700 nm was measured and used as a prevalue. As the standard, choline chloride was used. 1 mM choline chloride was diluted with 2× assay buffer up to 7 steps in 2-fold serial dilution, R^1 solution was treated similarly and the absorbance was measured. Furthermore, 15 μL of reagent R^2 solution (100 mM Tris-HCl pH 8.0, 1 mM 4-aminoantipyrine, 10 U/mL choline oxidase, 0.01% Triton X-100) was added, and the mixture was reacted at room temperature for 10 min, and absorbance at 550-700 nm was measured. The choline concentration per reaction time was calculated from the difference between the absorbance after R^2 solution addition and prevalue measured before R^2 addition and used as ATX activity value. inhibitory activity (%)=100×{1−[choline concentration (μM) of test substance administration group/choline concentration (μM) of solvent control group]} <calculating formula>
IC50 (human recombinant ATX) [µM],Experimental Example 2 Rat single administration test (inhibitory activity (%) 8 hr after 1 mg/kg oral administration) (ATX activity in plasma) [%],SMILES
0.007,81,O=C(O)c1ccc(C2CN(c3cncc(OC[C@H]4CC[C@H](C(F)(F)F)CC4)c3)CCO2)cc1 (stereo partly drawn) [Example 45]
0.003,71,"O=C(O)c1cccc(C2CN(c3cncc(OC[C@H]4CC[C@H](C(F)(F)F)CC4)c3)CCO2)c1 (relative stereo) [Example 13, 3-[4-(5-{[trans-4-(trifluoromethyl)cyclohexyl]methoxy}pyridin-3-yl)morpholin-2-yl]benzoic Acid]"
0.008,89,Cc1cc(OC(F)(F)F)ccc1COc1cncc(N2CCO[C@@H](CCC(=O)O)C2)c1 [Example 83]
0.012,92,"O=C(O)CC[C@H]1CN(c2cncc(OCc3ccc(OC(F)(F)F)cc3)c2)CCO1 [Example 14, 3-[(2S)-4-(5-{[4-(trifluoromethoxy)benzyl]oxy}pyridin-3-yl)morpholin-2-yl]propanoic Acid]"
0.078,,O=C(O)CC[C@H]1CN(c2cncc(OC[C@H]3CC[C@@H](C(F)(F)F)CC3)c2)CCO1 [Example 76]
0.152,,O=C(O)CC[C@@H]1CN(c2cncc(OCc3ccc(OC(F)(F)F)cc3)c2)CCO1 [Example 69]
0.007,,O=C(O)c1cncc(C2CN(c3cncc(OC[C@H]4CC[C@H](C(F)(F)F)CC4)c3)CCO2)c1 (stereo partly drawn) [Example 52]
0.009,,O=C(O)CC[C@H]1CN(c2cncc(OCC3CCC4(CC3)CC4)c2)CCO1 [Example 73]
0.005,,Cc1cnc(C2CN(c3cncc(OC[C@H]4CC[C@H](C(F)(F)F)CC4)c3)CCO2)cc1C(=O)O (stereo partly drawn) [Example 60]
0.381,,O=C(O)CC[C@H]1CN(c2cncc(OCc3ccc(F)cc3)c2)CCO1 [Example 77]
0.012,,O=C(O)CC[C@H]1CN(c2cncc(OCc3ccc(SC(F)(F)F)cc3)c2)CCO1 [Example 81]
0.104,,O=C(O)CC[C@H]1CN(c2cncc(OCC3CCCCC3)c2)CCO1 [Example 71]
0.133,,"O=C(O)CC[C@H]1CN(c2cncc(CCc3ccc(OC(F)(F)F)cc3)c2)CCO1 [Example 18-1, 3-[(2S)-4-(5-{2-[4-(trifluoromethoxy)phenyl]ethyl}pyridin-3-yl)morpholin-2-yl]propanoic Acid]"
0.008,,O=C(O)CC[C@H]1CN(c2cncc(OCC3CCC4(CCC4)CC3)c2)CCO1 [Example 72]
0.493,,O=C(O)CC[C@H]1CN(c2cncc(OCc3ccccc3Cl)c2)CCO1 [Example 80]
0.135,,O=C(O)CC[C@H]1CN(c2cncc(OCC3CCN(CC(F)(F)F)CC3)c2)CCO1 [Example 70]

# The remaining lines, values behind:
SMILES,IC50 (human recombinant ATX) [µM],Experimental Example 2 Rat single administration test (inhibitory activity (%) 8 hr after 1 mg/kg oral administration) (ATX activity in plasma) [%]
O=C(O)CCC1CN(c2cncc(OCc3ccc(OC(F)(F)F)cc3)c2)CCN1CC(F)(F)F (stereo not drawn) [Example 93],0.039,70
"COc1ccc(-c2cnnc(OC[C@H]3CC[C@H](C(F)(F)F)CC3)c2)cc1[C@H]1C[C@@H]1C(=O)O [Example 1-1, (1S,2S)-2-[2-methoxy-5-(6-{[trans-4-(trifluoromethyl)cyclohexyl]methoxy}pyridazin-4-yl)phenyl]cyclopropanecarboxylic Acid]",0.001,94
COc1ccc(-c2cnnc(OCc3ccc(OC(F)(F)F)cc3)c2)cc1C1CC1C(=O)O (stereo not drawn) [Example 31],0.004,90
"O=C(O)[C@H]1C[C@@H]1c1cc(-c2cncc(OC[C@H]3CC[C@H](C(F)(F)F)CC3)c2)ccn1 [Example 9-1, (1S,2S)-2-(5-{[trans-4-(trifluoromethyl)cyclohexyl]methoxy}-3,4′-bipyridin-2′-yl)cyclopropanecarboxylic Acid]",0.002,94
O=C(O)CC1CCCN(c2cncc(OCc3ccc(OC(F)(F)F)cc3)c2)C1 (stereo not drawn) [Example 92],0.057,73
C[C@@H]1CN(c2cncc(OCc3ccc(OC(F)(F)F)cc3)c2)C[C@H](CCC(=O)O)O1 [Example 87],0.016,95
O=C(O)c1ccc2c(c1)CCN2c1cncc(OCc2ccc(OC(F)(F)F)cc2)c1 [Example 36],0.006,
"O=C(O)[C@@H]1C[C@H]1c1cc(-c2cnnc(OC[C@H]3CC[C@H](C(F)(F)F)CC3)c2)ccn1 [Example 10-2, (1R,2R)-2-[4-(6-{[trans-4-(trifluoromethyl)cyclohexyl]methoxy}pyridazin-4-yl)pyridin-2-yl]cyclopropanecarboxylic Acid]",0.003,
"COc1ccc(-c2cnnc(OC[C@H]3CC[C@H](C(F)(F)F)CC3)c2)nc1[C@@H]1C[C@@]1(C)C(=O)O [Example 7-2, (1R,2R)-2-[3-methoxy-6-(6-{[trans-4-(trifluoromethyl)cyclohexyl]methoxy}pyridazin-4-yl)pyridin-2-yl]-1-methylcyclopropanecarboxylic Acid]",0.002,
O=C(O)c1ccc2c(c1)OCCN2c1cncc(OCc2ccc(OC(F)(F)F)cc2)c1 [Example 40],0.012,
"O=C(O)/C=C/CC1COCCN1c1cncc(OCc2ccc(OC(F)(F)F)cc2)c1 (single isomer, unassigned) [Example 22-2]",0.074,
COc1ccc(-c2cncc(OCc3cccc(Cl)c3)c2)cc1C1CC1C(=O)O (stereo not drawn) [Example 32],0.026,
CC1(C(=O)O)CC1[C@H]1CN(c2cnnc(OC[C@H]3CC[C@H](C(F)(F)F)CC3)c2)CCO1 (stereo partly drawn) [Example 89],0.009,
O=C(O)CCC1CCCN1c1cncc(OCc2ccc(OC(F)(F)F)cc2)c1 (stereo not drawn) [Example 100],0.204,
"COc1ccc(-c2cnnc(COc3ccc(C(F)(F)F)cc3)c2)cc1[C@@H]1C[C@H]1C(=O)O (relative stereo) [Example 3, trans-2-[2-methoxy-5-(6-{[4-(trifluoromethyl)phenoxy]methyl}pyridazin-4-yl)phenyl]cyclopropanecarboxylic Acid]",0.035,
O=C(O)CC1CCN(c2cncc(OCc3ccc(OC(F)(F)F)cc3)c2)C1 (stereo not drawn) [Example 97],0.378,
COc1ccc(-c2cncc(OCc3ccccc3)c2)cc1C1CC1C(=O)O (stereo not drawn) [Example 34],0.121,
O=C(O)COC[C@@H]1CCCN1c1cncc(OCc2ccc(OC(F)(F)F)cc2)c1 [Example 96],0.019,
O=C(O)C1CN(c2cncc(OCc3ccc(OC(F)(F)F)cc3)c2)CCO1 (stereo not drawn) [Example 90],0.419,
O=C(O)c1ccc2c(c1)N(c1cncc(OC[C@H]3CC[C@H](C(F)(F)F)CC3)c1)CC2 [Example 35],0.001,
O=C(O)c1cccc(C2CN(c3cncc(OCc4ccc(OC(F)(F)F)cc4)c3)CCO2)c1 (stereo not drawn) [Example 43],0.013,
O=C(O)CCC1CCCN(c2cncc(OCc3ccc(OC(F)(F)F)cc3)c2)C1 (stereo not drawn) [Example 91],0.024,
COc1ccc(C2CN(c3cncc(OCC4CCN(CC(F)(F)F)CC4)c3)CCO2)cc1C(=O)O (stereo not drawn) [Example 48],0.035,
Cc1nc(C2CN(c3cncc(OC[C@H]4CC[C@H](C(F)(F)F)CC4)c3)CCO2)ccc1C(=O)O (stereo partly drawn) [Example 57],0.007,
O=C(O)c1cc(C2CN(c3cncc(OC[C@H]4CC[C@H](C(F)(F)F)CC4)c3)CCO2)ncc1C(F)(F)F (stereo partly drawn) [Example 62],0.001,
O=C(O)/C=C/C1CCCN1c1cncc(OCc2ccc(OC(F)(F)F)cc2)c1 (stereo not drawn) [Example 101],0.113,
COc1ccc(-c2cncc(/C=C/c3ccc(OC(F)(F)F)cc3)c2)nc1[C@H]1C[C@@H]1C(=O)O [Example 28],0.004,
O=C(O)CCCC1COCCN1c1cncc(OCc2ccc(OC(F)(F)F)cc2)c1 (stereo not drawn) [Example 95],0.036,
